In brackets after ≈: the same amount, converted by molar mass. Read-outs that look alike come from different tables or passages of the source.
Assays:
E. coli = experiment: Direct flow cytometric AST (high-throughput flow cytometry, HTFC) of sucrose-recovered bacteria; format: cell-based, Escherichia coli; design: key to susceptibility classification, HTFC: (S) sensitive; (I) intermediate; (R) resistant; details: for susceptibility classification, HTFC / MIC: sucrose-recovered, antibiotic 4 hours (37° C.); for MIC: Escherichia coli, 4 h, read-out: Minimum inhibitory concentration, HTFC
Method: AST workflow using bacteria recovered directly from positive blood culture. A 1-mL aliquot of bacteria recovered using separation method 2 was diluted 10-fold in CAMHB, the OD600 adjusted to ˜0.01, and a 50 μL aliquot distributed into each well of a 96-well plate containing CAMHB with and without ceftazidime, tobramycin, and either meropenem (E. coli and P. aeruginosa) or oxacillin (S. aureus). Following Clinical and Laboratory Standards Institute (CLSI) guidelines^33, 2% sodium chloride (NaCl) was present in wells containing oxacillin to assist in the detection of methicillin-resistant S. aureus (MRSA). […] To account for observed differences in doubling and lag times, E. coli and P. aeruginosa were incubated for 4 hours at 37° C., while S. aureus was incubated for 9 hours at 35° C. After incubation, antibiotic plates were removed from the incubator and directly stored on ice (i.e. no post-processing) until high-throughput flow cytometry (BD LSRFortessa with HTS-system, BD, Franklin Lakes, NJ). No-antibiotic controls and antibiotic-treated samples were handled identically.
MIC Determination by flow cytometry. Because antibiotic effects are observed in both the position of scatter signatures (morphology changes) and count rates (growth inhibition), a modified count rate, accounting for scatter position, was used to evaluate susceptibility. Briefly, no-antibiotic control populations (triplicate) were pooled, binned, and a convex hull boundary set at 1-standard deviation above the background (not including bins with zero counts) was drawn. […] The overlap ratio, measuring changes in morphology, was then computed by dividing the number of sample events within the no-antibiotic control boundary by the total number of events within the sample. As an increase in count rate attributed to viable bacteria in antibiotic-treated samples is not scientifically meaningful, the fractional overlap was multiplied by the minimum of the control and sample count rates to generate a modified count rate accounting for antibiotic-induced morphological changes. All modified count rates were normalized by the average of the no-antibiotic controls. For automatic MIC determination, normalized count rates corresponding to n (index of predicted MIC), n+1, n+2 were iteratively fit to a linear function with a frameshift of n+1 between iterations (FIGS. 8 and 9). […] A threshold of −0.01 instead of zero was used to mitigate the influence of small fluctuations in normalized count rates on susceptibility determinations.

E. coli 79 = experiment: Microbroth dilution MIC with and without sucrose recovery; format: cell-based, Escherichia coli; details: MIC given as multiple of S/I/R
Method: Microbroth dilution for minimum inhibitory concentrations (MIC) with and without sucrose recovery. To isolate bacteria without sucrose, culture media from positive BacT/alert FA PLUS aerobic culture bottles (bioMérieux, Durham, NC) was serially diluted and plated onto LB agar (Lennox; Sigma-Aldrich, St. Louis, MO). Bacterial suspensions were prepared by resuspending colonies in CAMHB with incubation on a MaxQ 4000 incubator shaker (Thermo Fisher Scientific, Waltham, MA) at 37° C. and ˜225 rpm for 3 hours. Bacteria recovered via Method 2 were diluted 10-fold in CAMHB. Following incubation or sucrose recovery and dilution, bacterial suspensions were adjusted to ˜0.004 OD600 with CAMHB and a 50-μL aliquot distributed to each well of a 96-well plate containing CAMHB with and without clinically relevant antibiotics (2-fold dilution series). Gram-negative plates included: ceftazidime (3rd generation cephalosporin, RPI corp., Mount Prospect, IL), cefepime (4th generation cephalosporin, Chem-Impex Int'l, Wood Dale, IL), meropenem (carbapenem, Tokyo Chemical Industry, Tokyo, Japan), levofloxacin (quinolone, Alfa Aesar, Haverhill, MA), and tobramycin (aminoglycoside, MP Biomedicals LLC, Santa Ana, CA), while S. aureus plates contained: oxacillin (beta-lactam, Sigma-Aldrich, St. Louis, MO), vancomycin (glycopeptide, Santa Cruz Biotechnology, Dallas, TX), erythromycin (macrolide, Sigma-Aldrich, St. Louis, MO), clindamycin ([…]), and ciprofloxacin (fluoroquinolone, Sigma-Aldrich, St. Louis, MO). Antibiotic plates were incubated at 37° C. for 16-20 hours (gram-negative) or 35° C. for 24 hours (S. aureus), at which time, plates were removed from the incubator and visually inspected for bacterial growth. The MIC was set at the lowest antibiotic concentration at which no growth was detected.
Influence of Sucrose on Bacterial MIC. To rule out the potential effect of sucrose exposure in bacterial antibiotic susceptibility, microbroth dilution studies were performed on bacteria recovered using standard practices (i.e. plating following positive blood culture) and through selective lysis coupled with centrifugation through the sucrose cushion (Method 2).

Structure (SMILES) | susceptibility classification, HTFC (E. coli; E. coli Blood Culture A) | susceptibility classification, HTFC (E. coli; E. coli Blood Culture B) | susceptibility classification, HTFC (E. coli; E. coli EC37) | susceptibility classification, HTFC (E. coli; E. coli EC-bank) | susceptibility classification, HTFC (E. coli; E. coli Mu76) | susceptibility classification, HTFC (E. coli; E. coli Mu218) | susceptibility classification, HTFC (E. coli; E. coli Mu890) | MIC (E. coli; E. coli Blood Culture A) [µg/mL] | MIC (E. coli; E. coli Blood Culture B) [µg/mL] | MIC (E. coli; E. coli EC37) [µg/mL] | MIC (E. coli; E. coli EC-bank) [µg/mL] | MIC (E. coli; E. coli Mu76) [µg/mL] | MIC (E. coli; E. coli Mu218) [µg/mL] | MIC (E. coli; E. coli Mu890) [µg/mL] | flow cytometric count rate (E. coli; E. coli, strain not named (FIG. 14), concentrations ≥0.25 μg/mL, no-antibiotic control ~11,000 evts/s) [evts/s] | minimum inhibitory concentration (MIC), Standard (E. coli 79; E. coli 79 recovered by standard plating) | minimum inhibitory concentration (MIC), Sucrose (E. coli 79; E. coli 79 recovered through sucrose (Method 2))
CC(C)(O/N=C(\C(=O)N[C@@H]1C(=O)N2C(C(=O)[O-])=C(C[n+]3ccccc3)CS[C@H]12)c1csc(N)n1)C(=O)O [Ceftazidime, ceftazidime] | (I) | (R) | (I) | (R) | (S) | (R) | (S) | 8 (≈ 14.6 µM) | 32 (≈ 58.5 µM) | 8 (≈ 14.6 µM) | 16 (≈ 29.3 µM) | 1 (≈ 1.83 µM) | 16 (≈ 29.3 µM) | ≤ 0.25 | – | – | –
NC[C@H]1O[C@H](O[C@H]2[C@H](O)[C@@H](O[C@H]3O[C@H](CO)[C@@H](O)[C@H](N)[C@H]3O)[C@H](N)C[C@@H]2N)[C@H](N)C[C@@H]1O [Tobramycin, tobramycin] | (S) | (S) | (S) | (S) | (S) | (R) | (S) | 0.25 (≈ 0.535 µM) | 4 (≈ 8.56 µM) | 0.25 (≈ 0.535 µM) | ≤ 0.125 | 0.5 (≈ 1.07 µM) | 16 (≈ 34.2 µM) | 0.5 (≈ 1.07 µM) | ≥ 100 | ¼S | ¼S
C[C@@H](O)[C@H]1C(=O)N2C(C(=O)O)=C(S[C@@H]3CN[C@H](C(=O)N(C)C)C3)[C@H](C)[C@H]12 [Meropenem, meropenem] | (S) | (S) | (S) | (S) | (R) | (S) | (S) | ≤ 0.06 | ≤ 0.06 | ≤ 0.06 | ≤ 0.06 | 4 (≈ 10.4 µM) | ≤ 0.06 | ≤ 0.06 | – | – | –

From patent US20240368667A1, “RAPID, LABEL-FREE ANTIBIOTIC SUSCEPTIBILITY OF BACTERIA DIRECTLY FROM POSITIVE BLOOD OR BODILY FLUID/CULTURE” (priority 2021, published 2024)
